# In patent US20060069132A1, “Azolecarboxamide herbicides” (priority 2004, published 2006):
# Tests used:
# [1] = test system: cocklebur; experiment: Test B pre-/postemergence herbicide test; assay type: in vivo, Xanthium strumarium
# How it was run: (§1)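 Species tested were Echinochloa crus-galli, Ipomoea coccinea, Xanthium strumarium and Oryza sativa, treated both before emergence and at the 1- to 4-leaf stage; rice and barnyardgrass were also tested under flooding at 2 leaves. Greenhouse incubation lasted 13–15 days before visual 0–100 scoring.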
# [2] = test system: blackgrass; experiment: Test B postemergence herbicide test; assay type: in vivo, Alopecurus myosuroides; details: scale 0 (no effect) to 100 (complete control)
# How it was run: (§2)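 Plants grow to 1- to 4-leaf stage (2–18 cm) for postemergence spraying, or to 2-leaf stage for the paddy test. Formulated compound is applied. Greenhouse holding lasts 13–15 days. Response is scored visually relative to controls, 0 no effect to 100 complete control; a dash means no result.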
# [3] = test system: corn; experiment: Test B pre-/postemergence herbicide test; assay type: in vivo, Zea mays
# How it was run: (§3)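 Pre: seeds sown, then sprayed. Post: 1–4-leaf plants (2–18 cm) sprayed at the same time. Paddy: flooded, treated at 2-leaf stage. Formulation: non-phytotoxic solvent with surfactant. Greenhouse 13–15 days; visual 0–100 score relative to controls.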
# [4] = test system: giant foxtail; experiment: Test A pre-/postemergence herbicide test; assay type: in vivo, Setaria faberi; details: for Plant response rating, Foxtail, Giant: Postemergence; for Foxtail, Giant plant response rating: Preemergence
# How it was run: (§4)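 Plants are held in greenhouse about ten days after treatment, then compared with untreated controls and scored 0 (no effect) to 100 (complete control). Preemergence dosing is a directed soil spray on sown sandy loam; postemergence dosing is spray to runoff at 2–10 cm height.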
# [5] = test system: velvetleaf; experiment: Test B pre-/postemergence herbicide test; assay type: in vivo, Abutilon theophrasti
# How it was run: as §3
# [6] = test system: velvetleaf; experiment: Test A pre-/postemergence herbicide test; assay type: in vivo, Abutilon theophrasti; details: for Velvetleaf plant response rating: Preemergence, visual rating, 0 to 100 scale (0 no effect, 100 complete control)
# How it was run: as §4
# [7] = test system: pigweed; experiment: Test B pre-/postemergence herbicide test; assay type: in vivo, Amaranthus retroflexus
# How it was run: as §3
# [8] = test system: small flower umbrella sedge; experiment: Test B flooded paddy test; assay type: in vivo, Cyperus difformis; details: 1000 g ai/ha, visual rating, scale 0 to 100 (0 no effect, 100 complete control), 13 to 15 days
# How it was run: as §2
# [9] = test system: rice; experiment: Test B pre-/postemergence herbicide test; assay type: in vivo, Oryza sativa; details: preemergence, 125 g ai/ha; 0 to 100 scale, 0 is no effect, 100 is complete control
# How it was run: as §3
# [10] = test system: Surinam grass; experiment: Test B pre-/postemergence herbicide test; assay type: in vivo, Urochloa decumbens
# How it was run: as §3
# [11] = test system: barnyardgrass; experiment: Test A pre-/postemergence herbicide test; assay type: in vivo, Echinochloa crus-galli; details: for Plant response rating, Barnyardgrass: Postemergence; for Barnyardgrass plant response rating: Preemergence
# How it was run: as §4
# [12] = test system: wheat; experiment: Test B postemergence herbicide test; assay type: in vivo, Triticum aestivum; parameters: key to Wheat plant response rating: 0 = no effect, 100 = complete control; details: scale 0 (no effect) to 100 (complete control)
# How it was run: (§5)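 After treating 2-leaf paddy plants or 2–18 cm postemergence plants (1 to 4 leaves) with formulated chemical, researchers kept them in a greenhouse for 13–15 days. Effects were judged visually versus controls: 0 indicates none, 100 total control.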
# [13] = test system: morningglory; experiment: Test A pre-/postemergence herbicide test; assay type: in vivo, Ipomoea spp.; details: for Plant response rating, Morningglory: Postemergence; for Morningglory plant response rating: Preemergence
# How it was run: as §4
# [14] = test system: lambsquarters; experiment: Test B pre-/postemergence herbicide test; assay type: in vivo, Chenopodium album
# How it was run: as §3
# [15] = test system: large crabgrass; experiment: Test A pre-/postemergence herbicide test; assay type: in vivo, Digitaria sanguinalis; details: for Plant response rating, Crabgrass, Large: Postemergence; for Crabgrass, Large plant response rating: Preemergence
# How it was run: as §4
# [16] = test system: morningglory; experiment: Test B pre-/postemergence herbicide test; assay type: in vivo, Ipomoea coccinea
# How it was run: as §1
# [17] = test system: rice; experiment: Test B flooded paddy test; assay type: in vivo, Oryza sativa; details: 1000 g ai/ha, visual rating, scale 0 to 100 (0 no effect, 100 complete control), 13 to 15 days
# How it was run: as §2
# [18] = test system: ducksalad; experiment: Test B flooded paddy test; assay type: in vivo, Heteranthera limosa; details: 1000 g ai/ha, visual rating, scale 0 to 100 (0 no effect, 100 complete control), 13 to 15 days
# How it was run: as §2
# [19] = test system: wild oat; experiment: Test B postemergence herbicide test; assay type: in vivo, Avena fatua; details: scale 0 (no effect) to 100 (complete control)
# How it was run: as §5
# [20] = test system: giant foxtail; experiment: Test B pre-/postemergence herbicide test; assay type: in vivo, Setaria faberi
# How it was run: as §3
# [21] = test system: large crabgrass; experiment: Test B pre-/postemergence herbicide test; assay type: in vivo, Digitaria sanguinalis
# How it was run: as §3
# [22] = test system: redroot pigweed; experiment: Test A pre-/postemergence herbicide test; assay type: in vivo, Amaranthus retroflexus; details: for Plant response rating, Pigweed: Postemergence; for Pigweed plant response rating: Preemergence
# How it was run: as §4
# [23] = test system: barnyardgrass; experiment: Test B pre-/postemergence herbicide test; assay type: in vivo, Echinochloa crus-galli
# How it was run: as §1
# [24] = test system: barnyardgrass; experiment: Test B flooded paddy test; assay type: in vivo, Echinochloa crus-galli; details: 1000 g ai/ha, visual rating, scale 0 to 100 (0 no effect, 100 complete control), 13 to 15 days
# How it was run: as §2
# [25] = Postemergence, 500 g ai/ha, visual rating after 13 to 15 days, scale 0 (no effect) to 100 (complete control)
# [26] = Preemergence, 500 g ai/ha, scale 0 to 100
# [27] = postemergence, 125 g ai/ha, visual rating, scale 0 (no effect) to 100 (complete control)
# [28] = preemergence, 125 g ai/ha, 0 to 100 scale, 0 is no effect, 100 is complete control
# [29] = Postemergence, 500 g ai/ha, visual rating after 13 to 15 days
# [30] = postemergence, 125 g ai/ha, visual rating
# [31] = 500 g ai/ha, 0 to 100 scale, 0 no effect, 100 complete control
# [32] = 2000 g ai/ha, 0 to 100 scale, 0 no effect, 100 complete control
# [33] = 500 g ai/ha, visual rating, 0 to 100 scale (0 no effect, 100 complete control)
smiles,measurement,setting,value
CCn1nc(C(C)(C)C)cc1C(=O)Nc1cc(C(=O)OC(C)(C)C)ccc1F [Compound 71],"Plant response rating, Cocklebur",[1]; [25],0
same,Cocklebur plant response rating,[1]; [26],0
same,Cocklebur plant response rating,[1]; [27],0
same,"Plant response rating, Cocklebur",[1]; [28],0
same,"Plant response rating, Blackgrass",[2]; [29],0
same,Blackgrass plant response rating,[2]; [30],0
same,"Plant response rating, Corn",[3]; [25],10
same,Corn plant response rating,[3]; [26],0
same,Corn plant response rating,[3]; [27],0
same,"Plant response rating, Corn",[3]; [28],0
same,"Plant response rating, Foxtail, Giant",[4]; [31],0
same,"Plant response rating, Foxtail, Giant",[4]; [32],0
same,"Foxtail, Giant plant response rating",[4]; [33],0
same,"Foxtail, Giant plant response rating",[4]; [32],0
same,"Plant response rating, Velvetleaf",[5]; [25],0
same,Velvetleaf plant response rating,[5]; [27],0
same,"Plant response rating, Velvetleaf",[5]; [28],0
same,"Plant response rating, Velvetleaf","[6]; Postemergence, 2000 g ai/ha, 0 to 100 scale, 0 no effect, 100 complete control",0
same,Velvetleaf plant response rating,[6]; 500 g ai/ha,0
same,Velvetleaf plant response rating,[6]; 2000 g ai/ha,0
same,"Plant response rating, Pigweed",[7]; [25],20
same,Pigweed plant response rating,[7]; [27],0
same,"Plant response rating, Pigweed",[7]; [28],0
same,"Sedge, Umbrella plant response rating",[8],0
same,"Plant response rating, Rice",[9],0
same,"Plant response rating, Surinam Grass",[10]; [25],10
same,Surinam Grass plant response rating,[10]; [27],0
same,"Plant response rating, Surinam Grass",[10]; [28],0
same,"Plant response rating, Barnyardgrass",[11]; [31],0
same,"Plant response rating, Barnyardgrass",[11]; [32],0
same,Barnyardgrass plant response rating,[11]; [33],0
same,Barnyardgrass plant response rating,[11]; [32],0
same,"Plant response rating, Wheat",[12]; [29],0
same,Wheat plant response rating,[12]; [30],0
same,"Plant response rating, Morningglory",[13]; [31],0
same,"Plant response rating, Morningglory",[13]; [32],0
same,Morningglory plant response rating,[13]; [33],0
same,Morningglory plant response rating,[13]; [32],0
same,"Plant response rating, Lambsquarters",[14]; [25],20
same,Lambsquarters plant response rating,[14]; [27],0
same,"Plant response rating, Lambsquarters",[14]; [28],0
same,"Plant response rating, Crabgrass, Large",[15]; [31],0
same,"Plant response rating, Crabgrass, Large",[15]; [32],0
same,"Crabgrass, Large plant response rating",[15]; [33],0
same,"Crabgrass, Large plant response rating",[15]; [32],0
same,"Plant response rating, Morningglory",[16]; [25],0
same,Morningglory plant response rating,[16]; [27],0
same,"Plant response rating, Morningglory",[16]; [28],0
same,Rice plant response rating,[17],0
same,Ducksalad plant response rating,[18],0
same,"Plant response rating, Oat, Wild",[19]; [29],0
same,"Oat, Wild plant response rating",[19]; [30],0
same,"Plant response rating, Foxtail, Giant",[20]; [25],10
same,"Foxtail, Giant plant response rating",[20]; [26],0
same,"Foxtail, Giant plant response rating",[20]; [27],0
same,"Plant response rating, Foxtail, Giant",[20]; [28],0
same,"Plant response rating, Crabgrass, Large",[21]; [25],10
same,"Crabgrass, Large plant response rating",[21]; [26],0
same,"Crabgrass, Large plant response rating",[21]; [27],0
same,"Plant response rating, Crabgrass, Large",[21]; [28],0
same,"Plant response rating, Pigweed",[22]; [31],0
same,"Plant response rating, Pigweed",[22]; [32],0
same,Pigweed plant response rating,[22]; [33],0
same,Pigweed plant response rating,[22]; [32],0
same,"Plant response rating, Barnyardgrass",[23]; [25],10
same,Barnyardgrass plant response rating,[23]; [26],0
same,Barnyardgrass plant response rating,[23]; [27],0
same,"Plant response rating, Barnyardgrass",[23]; [28],0
same,Barnyardgrass plant response rating,[24],0
